According to patent publication US4444753A, “Pharmaceutical composition comprising extract from poison pouch contents of bee” (priority 1979, dated 1984):

Columns and labels:
[1] = test system: Ehrlich's ascites cancerous cells; experiment: Enhancement of carcinostatic activity of Carboquan or Adriamycin to Ehrlich's ascites cancer cells (Table 10); assay type: in vivo, mouse (ICR-strain); details: 1×10^5 cells, B-TL 1/10 none or 0.25 ml × 7 s.c.
Method: (2) Ehrlich's ascites cancerous cells were inoculated intraperitoneally into ICR-strain mice male, 6 weeks old) in an amount of 1×10^5 cells per mouse. B-TL 1/10 was administered subcutaneously at the back at a dose of 0.25 ml per mouse once a day repeatedly from the day of inoculation for 7 days in total. On the day following the inoculation of the cancerous cells, 0.25 mg/kg of Carboquan (CQ) or 5 mg/kg of Adriamycin (AM) was administered intraperitoneally.

[2] = test system: B-16 melanoma cancerous cells; experiment: Enhancement of carcinostatic activity of Adriamycin to B-16 melanoma cancerous cells (Table 12); assay type: in vivo, mouse (BDF1-strain); details: 0.2 g cells i.p.; AM 2 mg/kg i.p., B-TL 1/10 none or 0.25 ml × 7 s.c.
Method: Fifteen grams of B-16 melanoma cell cluster was milled by means of a mesh, and then suspended in 15 ml of a physiological salt solution, after which the resulting suspension was transplanted intraperitoneally in BDF1 -strain mice (male, 6 weeks old) in an amount of 0.2 ml per mouse (i.e., 0.2 g of the cells were transplanted per mouse). B-TL 1/10 was administered subcutaneously at the back at a dose of 0.25 ml per mouse once a day for 7 days from the day of transplantation. Adriamycin (AM) was administered intraperitoneally once at a dose of 2 mg/kg on the day following the day of cancer transplantation.

L-1210 leukemia cells [3] = experiment: Enhancement of carcinostatic activity of Arabinofuranocylcytocine to L-1210 leukemia cells (Table 6); assay type: in vivo, mouse (BDF1-strain); details: 1×10^3 cells; Ara-C 30 mg/kg × 5 i.p., B-TL 1/10 none or 0.25 ml × 7 s.c.
Method: (3) L-1210 leukemia cells were inoculated intraperitoneally into BDF1 -strain mice (male, 6 to 7 weeks old) in an amount of 1×10^3 cells per mouse, and B-TL 1/10 was administered subcutaneously at the back at a dose of 0.25 ml per mouse once a day repeatedly from the day of inoculation for 7 days in total. Arabinofuranocylcytocine (Ara-C) was administered intraperitoneally at a dose of 30 mg/kg once a day from the day following the inoculation of the cancerous cells for 5 days in total.

L-1210 leukemia cells [4] = experiment: Enhancement of carcinostatic activity of Mitomycin C to subcutaneous L-1210 tuberous tumor (Table 7); assay type: in vivo, mouse (BDF1-strain)
Method: (4) L-1210 leukemia cells were inoculated subcutaneously at the armpit of BDF1 -strain mice (male, 7 weeks old) in an amount of 1×10^6 cells per mouse to form a tuberous tumor. B-TL 1/10 was administered subcutaneously at the back at a dose of 0.25 ml per mouse once a day repeatedly from the first day after the inoculation of the cancerous cells for 7 days in total, and Mitomycin C was administered into the tumor at a dose of 4 mg/kg on the first day after the inoculation of the cancerous cells.

L-1210 leukemia cells [5] = experiment: Enhancement of carcinostatic activity of Mitomycin C to L-1210 leukemia cells (Table 4); assay type: in vivo, mouse (BDF1-strain); details: for Number of survivors/Number of tested mice (on the 38th day) / T/C (%): MMC 4 mg/kg i.p., B-TL 1/10 none or 0.25 ml × 7 s.c.
Method: (§1) (1) L-1210 leukemia cells were inoculated intraperitoneally into BDF1 -strain mice (male, 6 to 7 weeks old) in an amount of 1×10^3, 1×10^4 or 1×10^5 cells per mouse, B-TL 1/10 was administered subcutaneously at the back at a dose of 0.25 ml per mouse once a day repeatedly from the day of inoculation for 7 days in total. Mitomycin C (MMC) was administered intraperitoneally at a dose of 4 mg/kg on the first day after the inoculation of the cancerous cells.

[6] = test system: Ehrlich's ascites cancerous cells; experiment: Enhancement of carcinostatic activity of Mitomycin C to Ehrlich's ascites cancer cells, B-TL 1/10 pretreatment (Table 11); assay type: in vivo, mouse (ICR-strain); details: 1×10^5 cells, B-TL 1/10 none or 0.25 ml × 8 s.c.
Method: (3) B-TL 1/10 was administered subcutaneously at the back of ICR-strain mice (male, 5 weeks old) at a dose of 0.25 ml per mouse once a day repeatedly for 8 days in total, and on the day following the eighth administration, 1×10^5 Ehrlich's ascites cancerous cells were inoculated intraperitoneally. On the day following the inoculation of the cancerous cells, Mitomycin C (MMC) was administered intraperitoneally at a dose of 0.5 mg/kg or 1 mg/kg.

[7] = test system: Ehrlich's ascites cancer cells; experiment: Enhancement of carcinostatic activity of Mitomycin C to Ehrlich's ascites cancer cells (Table 9); assay type: in vivo, mouse (ICR-strain); details: 1×10^5 cells; MMC 0.5 mg/kg i.p.
Method: (1) Ehrlich's ascites cancer cells were inoculated intraperitoneally into ICR-strain mice (female, 6 weeks old) in an amount of 1×10^5 cells per mouse, and B-TL 1/10 was administered subcutaneously at the back at a dose of 0.25 ml per mouse once a day repeatedly from the third day after the inoculation of the cancerous cells for 7 days in total. Mitomycin C (MMC) was administered intraperitoneally at a dose of 0.5 mg/kg on the first day after the inoculation of the cancerous cells.

P-388 leukemia cells = experiment: Enhancement of carcinostatic activity of Mitomycin C to P-388 leukemia cells (Table 8); assay type: in vivo, mouse (BDF1-strain); details: 1×10^3 cells; MMC 0.5 mg/kg i.p., B-TL 1/10 none or 0.25 ml × 7 s.c.
Method: P-388 leukemia cells were inoculated intraperitoneally into BDF1 -strain mice (male, 7 weeks old) in an amount of 1×10^3 cells per mouse, and B-TL 1/10 was administered subcutaneously at the back at a dose of 0.25 ml per mouse on the day of inoculation and thereafter administered subcutaneously at the back at the same dose once a day repeatedly for 7 days. Mitomycin C (MMC) was administered intraperitoneally at a dose of 0.5 mg/kg on the first day after the inoculation of the P-388 leukemia cells.

L-1210 leukemia cells [8] = experiment: Enhancement of carcinostatic activity of Mitomycin C to L-1210 leukemia cells, divided B-TL 1/10 dosing (Table 5); assay type: in vivo, mouse (BDF1-strain); details: MMC 4 mg/kg
Method: as §1
(2) In the same manner as in (1), L-1210 leukemia cells were inoculated and MMC and the B-T were administered. B-TL 1/10 was administered subcutaneously at the back, […], and once on the third, 4th, 5th and 6th days after the inoculation.

Escherichia coli TK-16 [9] = experiment: Antibacterial activity-enhancing effect with Piperacillin in Escherichia coli infection (Table 17); assay type: in vivo, Escherichia coli; ICR-strain mice; details: for Number of survivors: 2×10^7 cells/mouse, 5 mice, 7th day
Method: Escherichia coli TK-16 was administered intraperitoneally into a group of five ICR-strain mice (male, 4 weeks old) in an amount of 2×10^7 cells/mouse, and after one hour, Piperacillin was administered once subcutaneously at the back. B-TL 1/5 was administered subcutaneously at the back at a dose of 0.25 ml per mouse once a day on the 7th, 6th and 5th days before the inoculation of the bacteria, and B-TL 1/10 at a dose of 0.25 ml per mouse once a day on the second and first days before the inoculation of the bacteria. A physiological salt solution was administered to the control group in the same manner as above, and the numbers of the survivors on the 7th day after the inoculation of the bacteria were observed.

Escherichia coli TK-16 [10] = experiment: Infection-controlling effect at a low immunity (cyclophosphamide-treated mice, Table 16); assay type: in vivo, Escherichia coli; ICR-strain mice; details: for Number of survivors: 15 mice, cyclophosphamide 100 mg/kg, 7th day
Method: Cyclophosphamide was administered intraperitoneally into a group of fifteen ICR-strain mice (male, 4 weeks old) at a dose of 100 mg/kg. On the next day, B-TL 1/10 was administered subcutaneously at the back at a dose of 0.25 ml per mouse once a day repeatedly for 4 days, and a physiological salt solution was administered to the contorl group in the same manner as described above. On the day following the administration of B-TL 1/10, Escherichia coli TK-16 was administered intraperitoneally, and the numbers of the survivors on the 7th day after the inoculation of the bacteria were observed.

[11] = 1×10^6 cells s.c., MMC 4 mg/kg into the tumor, B-TL 1/10 none or 0.25 ml × 7 s.c.

Structure (SMILES): COC(COC(N)=O)C1=C(N2CC2)C(=O)C(C)=C(N2CC2)C1=O (racemic) [CQ, Carboquan]
- Number of survivors/Number of tested mice (on the 40th day) ([1]; CQ 0.25 mg/kg i.p.): 0/4
- T/C (%) ([1]; CQ 0.25 mg/kg i.p.): 138%

Structure (SMILES): COc1cccc2c1C(=O)c1c(O)c3c(c(O)c1C2=O)C[C@@](O)(C(=O)CO)C[C@@H]3O[C@H]1C[C@H](N)[C@H](O)[C@H](C)O1 [AM, Adriamycin]
- Number of survivors/Number of tested mice (on the 35th day) [2]: 1/4
- T/C (%) [2]: 182%
- Number of survivors/Number of tested mice (on the 40th day) ([1]; AM 5 mg/kg i.p.): 2/4
- T/C (%) ([1]; AM 5 mg/kg i.p.): 175%

Structure (SMILES): Nc1ccn([C@@H]2O[C@H](CO)[C@@H](O)[C@@H]2O)c(=O)n1 [Ara-C, Arabinofuranocylcytocine]
- Number of survivors/Number of tested mice (on the 30th day) (L-1210 leukemia cells [3]): 0/4
- T/C (%) (L-1210 leukemia cells [3]): 152%

Structure (SMILES): CO[C@@]12[C@H](COC(N)=O)C3=C(C(=O)C(C)=C(N)C3=O)N1C[C@@H]1N[C@@H]12 [MMC, Mitomycin C]
- Number of survivors/Number of tested mice (on the 30th day) (L-1210 leukemia cells [4]; [11]): 4/5
- T/C (%) (L-1210 leukemia cells [4]; [11]): 304%
- Weight of tumor, Ratio to Control (L-1210 leukemia cells [4]; 30th day versus control measured on 8-10th day (control = 100)): 156
- Weight of tumor (L-1210 leukemia cells [4]; on the 30th day, 4 survivors among 5, MMC 4 mg/kg, B-TL 1/10 none or 0.25 ml × 7): 808 ± 461 mg
- Number of survivors/Number of tested mice (on the 38th day) (L-1210 leukemia cells [5]; 1 × 10^3 cells/mouse): 4/13
- T/C (%) (L-1210 leukemia cells [5]; 1 × 10^3 cells/mouse): 192%
- life-prolonging effect (in words) (L-1210 leukemia cells [5]; 1×10^3 cells, same tendency at 1×10^4 and 1×10^5): a life-prolonging effect was observed
- Number of survivors/Number of tested mice (on the 38th day) (L-1210 leukemia cells [5]; 1 × 10^4 cells/mouse): 2/9
- T/C (%) (L-1210 leukemia cells [5]; 1 × 10^4 cells/mouse): 188%
- Number of survivors/Number of tested mice (on the 38th day) (L-1210 leukemia cells [5]; 1 × 10^5 cells/mouse): 0/4
- T/C (%) (L-1210 leukemia cells [5]; 1 × 10^5 cells/mouse): 136%
- Number of survivors/Number of tested mice (on the 40th day) ([6]; MMC 0.5 mg/kg i.p.): 1/5
- T/C (%) ([6]; MMC 0.5 mg/kg i.p.): 157%
- Number of survivors/Number of tested mice (on the 40th day) ([6]; MMC 1 mg/kg i.p.): 0/5
- T/C (%) ([6]; MMC 1 mg/kg i.p.): 172%
- Number of survivors/Number of tested mice (on the 40th day) [7]: 1/10
- T/C (%) [7]: 158%
- Number of survivors/Number of tested mice (on the 41st day) (P-388 leukemia cells): 0/3
- T/C (%) (P-388 leukemia cells): 101%
- Number of survivors/Number of tested mice (on the 40th day) (L-1210 leukemia cells [8]; 1 × 10^3 cells/mouse): 1/4
- T/C (%) (L-1210 leukemia cells [8]; 1 × 10^3 cells/mouse): 187%
- Number of survivors/Number of tested mice (on the 40th day) (L-1210 leukemia cells [8]; 1 × 10^4 cells/mouse): 1/4
- T/C (%) (L-1210 leukemia cells [8]; 1 × 10^4 cells/mouse): 202%
- Number of survivors/Number of tested mice (on the 40th day) (L-1210 leukemia cells [8]; 1 × 10^5 cells/mouse): 0/4
- T/C (%) (L-1210 leukemia cells [8]; 1 × 10^5 cells/mouse): 136%

Structure (SMILES): CCN1CCN(C(=O)N[C@@H](C(=O)N[C@@H]2C(=O)N3[C@@H]2SC(C)(C)[C@@H]3C(=O)O)c2ccccc2)C(=O)C1=O [Piperacillin]
- Number of survivors (Escherichia coli TK-16 [9]; Piperacillin 0.156 mg/mouse s.c.): 0
- Number of survivors (Escherichia coli TK-16 [9]; Piperacillin 0.313 mg/mouse s.c.): 0
- Number of survivors (Escherichia coli TK-16 [9]; Piperacillin 0.625 mg/mouse s.c.): 1
- Number of survivors (Escherichia coli TK-16 [9]; Piperacillin 1.25 mg/mouse s.c.): 0
- Number of survivors (Escherichia coli TK-16 [9]; Piperacillin 2.5 mg/mouse s.c.): 2
- ED50 (Escherichia coli TK-16 [9]; Piperacillin dose, without or with B-TL 1/5 then B-TL 1/10 pretreatment): 3.54 mg/mouse

Structure (SMILES): O=P1(N(CCCl)CCCl)NCCCO1 (centres unmarked) [cyclophosphamide, Cyclophosphamide]
- Number of survivors (Escherichia coli TK-16 [10]; 1.0 × 10^6 cells/mouse): 3
- Number of survivors (Escherichia coli TK-16 [10]; 2.0 × 10^5 cells/mouse): 10
- Number of survivors (Escherichia coli TK-16 [10]; 3.0 × 10^5 cells/mouse): 10
- Number of survivors (Escherichia coli TK-16 [10]; 4.0 × 10^5 cells/mouse): 6
- Number of survivors (Escherichia coli TK-16 [10]; 8.0 × 10^5 cells/mouse): 4
- LD50 versus control (in words) (Escherichia coli TK-16 [10]; Table 16): significantly lower
- LD50 (of bacteria) (Escherichia coli TK-16 [10]; cyclophosphamide 100 mg/kg i.p., without or with B-TL 1/10 0.25 ml s.c. × 4 days): 2.7 × 10^5 cells/mouse
- infection-controlling effect (in words) (Escherichia coli TK-16 [10]; mice given cyclophosphamide): the inhibition of the infection-controlling effect was confirmed
